# Results published in PubChem BioAssay (NCI).
#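 48-hour exposure; five concentrations; linearly interpolated endpoints. TGI is the concentration that stops growth completely.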
# Legend:
# Assay in all cases: inhibition of tumour cell growth, NCI panel, 48 h
# OVCAR-3 ovarian = tested on: OVCAR-3 ovarian
# HT29 colon = tested on: HT29 colon
# HCT-116 colon = tested on: HCT-116 colon
# M14 melanoma = tested on: M14 melanoma
# MALME-3M melanoma = tested on: MALME-3M melanoma
# ACHN renal = tested on: ACHN renal
Compound,TGI (OVCAR-3 ovarian),TGI (HT29 colon),TGI (HCT-116 colon),TGI (M14 melanoma),TGI (MALME-3M melanoma),TGI (ACHN renal)
COC1OC(C)C(OC(=O)C(C)(C)C)C(C)(O)C1O (stereo not drawn),> 100 µM,> 100 µM,> 100 µM,> 100 µM,> 100 µM,–
CC(=O)Nc1ccc(/C=c2\sc3nnc(/C=C/c4ccccc4)n3c2=O)cc1,> 50 µM,–,> 50 µM,> 50 µM,> 50 µM,> 50 µM
CSc1s[s+]c(SC)c1[O-],67.2 µM,74.1 µM,36.8 µM,75.8 µM,40.6 µM,> 100 µM
O=C1C=C(Br)C(=O)C(Br)=C1,> 100 µM,> 100 µM,> 100 µM,> 100 µM,> 100 µM,> 100 µM
C=C(CO)CC(O)c1ccccc1 (stereo not drawn),> 100 µM,> 100 µM,> 100 µM,> 100 µM,–,> 100 µM
Cc1ccc(C(=O)/C=C/c2ccccc2Cl)cc1,31 µM,29.7 µM,25.6 µM,31.4 µM,53.6 µM,29.4 µM
CN/N=C(\C)CC(=O)Nc1cccc(Cl)c1C,> 100 µM,> 100 µM,> 100 µM,> 100 µM,> 100 µM,> 100 µM
O=C(O)/C(O)=C1/C=C(c2ccccc2)c2ccccc21,–,86.8 µM,37.6 µM,45.3 µM,71.3 µM,94.5 µM
CC(C)OCN1COCN=C1NC#N,> 100 µM,> 100 µM,> 100 µM,> 100 µM,> 100 µM,> 100 µM
Cc1cccc(NC(=O)CC2C(=O)Nc3ccccc3S2(=O)=O)c1C (stereo not drawn),61.2 µM,> 100 µM,33.1 µM,> 100 µM,45.1 µM,70.3 µM
Cc1ccccc1NC(=O)C(=O)Cc1nc2ccccc2s1,> 100 µM,> 100 µM,> 100 µM,> 100 µM,> 100 µM,> 100 µM
CC1CC2C3CC(F)C4=CC(=O)C=CC4(C)C3(F)C(O)CC2(C)C1(O)C(=O)CO (stereo not drawn),> 100 µM,> 100 µM,> 100 µM,> 100 µM,> 100 µM,> 100 µM
CN(C)CC1(C)CC/C(=C\c2ccc3c(c2)OCO3)C1=O (stereo not drawn),> 100 µM,> 100 µM,> 100 µM,> 100 µM,> 100 µM,> 100 µM
CCCCCN(CCCCC)C(=O)[C@@H](CCC(=O)OCc1ccccc1)NC(=O)c1cc2ccccc2[nH]1,> 100 µM,> 100 µM,> 100 µM,> 100 µM,> 100 µM,> 100 µM
CC1CC(=O)C(C(O)CC2CC(=O)N(c3ccccc3)C(=O)C2)C(C)C1 (stereo not drawn),> 100 µM,> 100 µM,> 100 µM,> 100 µM,> 100 µM,> 100 µM
COCCN1C2=CCCCC2=Nc2c(N)nc(N)nc21,77.7 µM,> 100 µM,> 100 µM,> 100 µM,> 100 µM,> 100 µM
COC(=O)C(C(=O)C(=O)Nc1ccccc1OC)c1csc(-n2nc(-c3ccccc3)cc2-c2ccccc2)n1 (stereo not drawn),> 100 µM,> 100 µM,> 100 µM,> 100 µM,> 100 µM,> 100 µM
O=C(Nc1cc(C(F)(F)F)ccc1Cl)C(=O)C(C(=O)c1ccc2ccccc2c1)C1OC(=O)c2ccccc21 (stereo not drawn),> 50.7 µM,31.7 µM,30.2 µM,25 µM,27.4 µM,> 86.7 µM
O=C(O)C1Cc2nc[nH]c2CN1 (stereo not drawn),> 100 µM,> 100 µM,> 100 µM,> 100 µM,> 100 µM,> 100 µM
N/C(=N\C(=S)N1CCCCC1)N1CCCCC1,–,> 100 µM,> 100 µM,> 100 µM,> 100 µM,> 100 µM
CC(NC1CCC[C@H]1O)c1ccccc1 (mixture of isomers),> 100 µM,> 100 µM,> 100 µM,> 100 µM,> 100 µM,> 100 µM
Oc1cccc(C2SCc3nc4ccccc4n32)c1 (stereo not drawn),> 100 µM,> 100 µM,> 100 µM,–,> 100 µM,> 100 µM
Nc1nc(N)c(-c2ccccc2)c(C(=O)Nc2ccc(Cl)c(Cl)c2)n1,> 100 µM,> 100 µM,> 100 µM,> 100 µM,> 100 µM,> 100 µM
C=C(C)C1CC[C@]2(C(=O)O)CCC3(C)[C@H](CCC4[C@@]5(C)CC[C@H](OC6OC(CO)C(O)C6OC6OC(C)C(O)C(O)C6O)[C@@](C)(CO)C5CC[C@]43C)C12 (stereo partly drawn),> 100 µM,> 100 µM,> 100 µM,> 100 µM,–,> 100 µM
O=C1CCC(=O)c2cc(Br)ccc2N1,> 100 µM,> 100 µM,> 55 µM,> 100 µM,> 100 µM,> 100 µM
Cc1ccc(NC(=O)SCCC(=O)O)cc1NC(=O)SCCC(=O)O,> 100 µM,> 100 µM,> 100 µM,> 100 µM,–,> 100 µM
